Data set [1] deals with intestinal bacteria. As to the kind of experiment: Bacterial culture test, 5% diluted solution of stool from one subject. The following applies: 10 ml 5% stool suspension + 15 ml test solution. It counts as cell-based. As for the experimental part:
With respect to Example 2 in which xylitol was used as the first cleansing ingredient, in order to test the antibacterial effect of the solution against intestinal bacteria, a 5% diluted solution of stool was prepared from a stool sample obtained from one subject. […] Then, each of these mixed solutions was split in half and submitted to two different testing institutions, the Seoul Medical Science Institute (SCL), which is a CAP accredited and KSLM/Laboratory Medicine Foundation accredited institution, and the Green Cross Laboratories (GC Labs), which is a KSLM accredited institution, for bacterial culture tests.

The subject of data set [2] is intestinal bacteria. As to the kind of experiment: Bacterial culture test of mixed stool/test solutions after gas measurement. The data set is classed as cell-based. The following applies: average; mixed solutions cultured for 48 hours at SCL. On the procedure:
Following the measurement of gas concentration as described above, the mixed solutions in the containers were submitted to a laboratory at the Seoul Medical Science Institute (SCL), a CAP accredited and Korean Society for Laboratory Medicine (KSLM)/Laboratory Medicine Foundation accredited institution, where they were cultured for 48 hours and measured for the resulting colony counts.

For data set [3] the following is noted: scale proposed by Nunes et al. 2008; cited from earlier work.
The conditions of data set [4]: 15 g intravenously over 30 minutes twice weekly for four weeks; phase I study 2013; cited from earlier work.

We go through five compounds from patent publication US20150342937A1, “BOWEL CLEANSING COMPOSITION” (priority 2013, published 2015).

Take `OC[C@@H](O)[C@H](O)[C@@H](O)CO` [Reference Example 6, xylitol]: the “Colony count (GC Labs)” value with intestinal bacteria [1] (Green Cross Laboratories) is on record as 10.2 × 10^6 CFU/mL. Moreover, the “Colony count (SCL)” value in the data set on intestinal bacteria [1] (Seoul Medical Science Institute) is given as 60 × 10^6 CFU/mL. For `OC[C@@H](O)[C@@H](O)[C@H](O)[C@H](O)CO` [compound 5, mannitol], in the data set with intestinal bacteria [2], the Colony count is listed as 4.0 × 10^8 CFU/mL. Turning to `OC[C@@H](O)[C@@H](O)[C@H](O)[C@H](O)CO` [mannitol], the “rate of adequate bowel cleansing” value in data set [3] is reported as 75%. `OC[C@@H](O)[C@@H](O)[C@H](O)[C@@H](O)CO` [compound 4, sorbitol]: in the data set on intestinal bacteria [2], the Colony count is given as 4.5 × 10^8 CFU/mL.

As for `O=C1O[C@H]([C@@H](O)CO)C(O)=C1O` [ascorbic acid], in data set [4], the “blood ascorbic acid level” value is on record as “at least 350 mg/dL”.
